Measured values reported in patent US6846921B2, “Chimeric antisense oligonucleotides and cell transfecting formulations thereof” (Chiron Corporation, priority 1999, dated 2005).
{5'-OMe-dT} = O-methyl thymidine blocking nucleotide (W), phosphodiester-linked; {3'-3'N} = to-3' linked nucleotide blocking group (Z), phosphodiester-linked; d = 2'-deoxy (DNA); m = 2'-O-methyl

How the values were obtained:
p110β mRNA = p110β mRNA knockout after transfection of chimeric antisense oligonucleotide; format: cell-based, human; settings: HT1080 cells, Lipitoid 1 for transfection, incubated 24 hours, approximate level
Protocol: (§1) With the exception of the mTyr oligo (SEQ ID NO: 17-18), which was transfected into B16 melanoma cells, all oligos shown in Table 1 were transfected into HT1080 cells, using “Lipitoid 1” (see below) for transfection, and incubated for 24 hours. The table gives the approximate level of mRNA knockout observed in each case.
(§2) For each transfection mixture, a carrier molecule, preferably a lipitoid or cholesteroid, was prepared to a working concentration of 0.5 mM in water, sonicated to yield a uniform solution, and filtered through a 0.45 μm PVDF membrane. The antisense oligonucleotide was prepared to a working concentration of 100 μM in sterile Millipore water. […]
(§3) The level of target mRNA was quantitated using the Roche LightCycler™ real-time PCR machine. […]
(§4) An amplification mixture was prepared by mixing in the following order: 1×PCR buffer II, 3 mM MgCl2, 140 μM each dNTP, 0.175 pmol each oligo, 1:50,000 dil of SYBR® Green, 0.25 mg/ml BSA, 1 unit Taq polymerase, and H2O to 20 μl. (PCR buffer II is available in 10×concentration from Perkin-Elmer (Norwalk, Conn.). In 1×concentration it contains 10 mM Tris pH 8.3 and 50 mM KCl. SYBR® Green (Molecular Probes, Eugene, Oreg.) is a dye which fluoresces when bound to double stranded DNA. As double stranded PCR product is produced during amplification, the fluorescence from SYBR® Green increases.) […]

AKT2 mRNA = AKT2 mRNA knockout after transfection of chimeric antisense oligonucleotide; format: cell-based, human; settings: HT1080 cells, Lipitoid 1 for transfection, incubated 24 hours, approximate level
Protocol: as §1, §2, §3, §4

PDK1 mRNA = PDK1 mRNA knockout after transfection of chimeric antisense oligonucleotide; format: cell-based, human; settings: HT1080 cells, Lipitoid 1 for transfection, incubated 24 hours, approximate level
Protocol: as §1, §2, §3, §4

MMP2 mRNA = MMP2 mRNA knockout after transfection of chimeric antisense oligonucleotide; format: cell-based, human; settings: HT1080 cells, Lipitoid 1 for transfection, incubated 24 hours, approximate level
Protocol: as §1, §2, §3, §4

p110α mRNA = p110α mRNA knockout after transfection of chimeric antisense oligonucleotide; format: cell-based, human; settings: HT1080 cells, Lipitoid 1 for transfection, incubated 24 hours, approximate level
Protocol: as §1, §2, §3, §4

MMP9 mRNA = MMP9 mRNA knockout after transfection of chimeric antisense oligonucleotide; format: cell-based, human; settings: HT1080 cells, Lipitoid 1 for transfection, incubated 24 hours, approximate level
Protocol: as §1, §2, §3, §4

UPAR mRNA = UPAR mRNA knockout after transfection of chimeric antisense oligonucleotide; format: cell-based, human; settings: HT1080 cells, Lipitoid 1 for transfection, incubated 24 hours, approximate level
Protocol: as §1, §2, §3, §4

mTyr mRNA = mTyr mRNA knockout after transfection into B16 melanoma cells; format: cell-based; settings: approximate level
Protocol: as §1, §2, §3, §4

CHK2 mRNA = CHK2 mRNA knockout after transfection of chimeric antisense oligonucleotide; format: cell-based, human; settings: HT1080 cells, Lipitoid 1 for transfection, incubated 24 hours, approximate level
Protocol: as §1, §2, §3, §4

Work on “21 (TGATGAAGAGATTCCCATGCCGTCG; antisense; sugars from the 5' end m7 d11 m7, 5' {5'-OMe-dT}, 3' {3'-3'N}, backbone and T or U not given here; 2'-OMe blocks are phosphodiester, DNA gap is phosphorothioate) [compound 21]” yielded a mRNA knockout (p110β mRNA) greater than 90%.

Work on “2 (GTTCCCTTGCCAAGGAGTTTGAGAT; antisense; sugars from the 5' end m7 d11 m7, 5' {5'-OMe-dT}, 3' {3'-3'N}, backbone and T or U not given here; 2'-OMe blocks are phosphodiester, DNA gap is phosphorothioate) [compound 2]” yielded a mRNA knockout (AKT2 mRNA) greater than 85%.

Work on “23 (CTGTGAGCAACAGCTGTCGTCGTCT; antisense; sugars from the 5' end m7 d11 m7, 5' {5'-OMe-dT}, 3' {3'-3'N}, backbone and T or U not given here; 2'-OMe blocks are phosphodiester, DNA gap is phosphorothioate) [compound 23]” yielded a mRNA knockout (PDK1 mRNA) greater than 90%.

“14 (GAAGCCCCACTTGCGGTCGTCAT; sugars from the 5' end m7 d9 m7, 5' {5'-OMe-dT}, 3' {3'-3'N}, backbone and T or U not given here; 2'-OMe blocks are phosphodiester, DNA gap is phosphorothioate) [compound 14]” showed a mRNA knockout (MMP2 mRNA) greater than 80%.

Substance “19 (ATCTGGTCGCCTCATTTGCTCAACT; antisense; sugars from the 5' end m7 d11 m7, 5' {5'-OMe-dT}, 3' {3'-3'N}, backbone and T or U not given here; 2'-OMe blocks are phosphodiester, DNA gap is phosphorothioate) [compound 19]” has a mRNA knockout (p110α mRNA) greater than 95%.

With “16 (GCTTTCTCTCGGTACTGGAAGACGT; antisense; sugars from the 5' end m7 d11 m7, 5' {5'-OMe-dT}, 3' {3'-3'N}, backbone and T or U not given here; 2'-OMe blocks are phosphodiester, DNA gap is phosphorothioate) [compound 16]” the mRNA knockout (MMP9 mRNA) was greater than 80%.

With “24 (GGCAGTCATTAGCAGGGTGATGGTG; antisense; sugars from the 5' end m7 d11 m7, 5' {5'-OMe-dT}, 3' {3'-3'N}, backbone and T or U not given here; 2'-OMe blocks are phosphodiester, DNA gap is phosphorothioate) [compound 24]” the mRNA knockout (UPAR mRNA) was greater than 80%.

In the case of “17 (AACCCATGAAGTTGCCTGAGCACTG; antisense; sugars from the 5' end m7 d11 m7, 5' {5'-OMe-dT}, 3' {3'-3'N}, backbone and T or U not given here; 2'-OMe blocks are phosphodiester, DNA gap is phosphorothioate) [compound 17]”, the mRNA knockout (mTyr mRNA) is reported as greater than 90%.

Work on “4 (GACCCACTTCCCTGAAAATCCGAAA; antisense; sugars from the 5' end m7 d11 m7, 5' {5'-OMe-dT}, 3' {3'-3'N}, backbone and T or U not given here; 2'-OMe blocks are phosphodiester, DNA gap is phosphorothioate) [compound 4]” yielded a mRNA knockout (CHK2 mRNA) greater than 90%.
